The test system of one data set is Kv11.1. Nature of the data set: Patch-clamp whole-cell recording of Kv11.1 channel currents in transfected HEK293 cells. The settings on record: 1 μM peptide, compared with Kv1.3. In kind it is cell-based, human. On the technique in general: In patch-clamp work, channel activity is measured electrically.
In another data set the target is T1, Kv1.3 channel (Mus musculus, UniProt P16390).
T1 construct: expressed in transfected cells; host or cells: HEK293 cells
Nature of the data set: Patch-clamp whole-cell recording of Kv1.3 channel currents in transfected HEK293 cells. In kind it is cell-based. The conditions noted are these: for Reduction of the affinity of BmKTX-196 for the Kv1.3 channel: alanyl mutants of BmKTX-196.

Positions of bridges follow the written chain, without caps; N, C: chain ends. Residues, ends and D or L forms follow the SMILES beside them. No end group written: not given here.

T1 sequence (P16390 whole entry): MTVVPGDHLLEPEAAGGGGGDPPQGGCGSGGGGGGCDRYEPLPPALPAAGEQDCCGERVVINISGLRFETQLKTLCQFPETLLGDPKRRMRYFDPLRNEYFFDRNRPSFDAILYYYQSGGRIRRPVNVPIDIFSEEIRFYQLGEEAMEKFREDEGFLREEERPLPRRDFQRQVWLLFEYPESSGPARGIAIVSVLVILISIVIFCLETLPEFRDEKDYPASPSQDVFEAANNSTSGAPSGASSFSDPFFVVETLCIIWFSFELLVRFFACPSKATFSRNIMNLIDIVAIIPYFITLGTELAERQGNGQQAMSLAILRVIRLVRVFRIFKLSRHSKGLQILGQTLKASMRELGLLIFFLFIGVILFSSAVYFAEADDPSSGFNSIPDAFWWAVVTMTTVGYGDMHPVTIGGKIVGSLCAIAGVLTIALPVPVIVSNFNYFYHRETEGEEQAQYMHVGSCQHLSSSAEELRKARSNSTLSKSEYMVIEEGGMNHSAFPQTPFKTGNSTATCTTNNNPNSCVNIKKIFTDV
Procedure for Kv1.3 channel: (§1) The cDNAs encoding mouse Kv1.1, human Kv1.2, mouse Kv1.3, human Kv7.1, human Kv11.1, human KCa3.1, human KCa2.2 and human KCa2.3 were subcloned into the Xho I and Bam HI sites of pIRES2-EGFP, a bicistronic expression vector (Clontech, USA) for coexpression with enhanced GFP.
(§2) Electrophysiological experiments were carried out using patch-clamp whole-cell recording as described previously[10][23][27][38]. HEK293 cells were transfected with appropriate cDNA plasmids using the SofastTM Transfection Reagent (Sunma). Potassium currents were recorded 1 to 3 days after transfection and positive cells were selected based on the presence of GFP fluorescence. Electrophysiological experiments were carried out at 22–25°C using patch-clamp whole-cell recording. Data analyses were performed with IgorPro (WaveMetrics, Lake Oswego, OR), and IC50 values were deduced by fitting a modified Hill equation to the data, Itoxin/Icontrol = 1/1 + ([toxin peptide]/IC50), where I is the peak current to the normalized data points obtained with at least five different toxin peptide concentrations. The results are mainly shown as the mean ± S.E, with n representing the number of experiments.
Procedure for Kv11.1: as §1, §2

`CC[C@H](C)[C@H](NC(=O)CNC(=O)[C@@H](N)C(C)C)C(=O)N[C@@H](CC(N)=O)C(=O)N[C@H](C(=O)N[C@@H](CC(=O)O)C(=O)N[C@H]1CSSC[C@@H]2NC(=O)[C@H](CCCCN)NC(=O)CNC(=O)[C@H](Cc3ccccc3)NC(=O)[C@H](CCCNC(=N)N)NC(=O)[C@H](CCSC)NC(=O)CNC(=O)[C@H](C)NC(=O)[C@H](CCCCN)NC(=O)[C@H](CCCCN)NC(=O)[C@@H]3CSSC[C@@H](C(=O)N[C@H](C(=O)N4CCC[C@H]4C(=O)N[C@@H](CCCCN)C(=O)O)[C@@H](C)O)NC(=O)[C@H](CC(=O)O)NC(=O)[C@H](CSSC[C@H](NC(=O)[C@H](CCC(N)=O)NC(=O)CNC(=O)[C@H](CO)NC(=O)[C@H](Cc4c[nH]cn4)NC(=O)[C@H](CCCCN)NC1=O)C(=O)N[C@@H](CC(C)C)C(=O)N[C@@H](CCCCN)C(=O)N1CCC[C@H]1C(=O)N3)NC(=O)[C@H](CCCCN)NC(=O)CNC(=O)[C@H](CC(N)=O)NC(=O)[C@H]([C@@H](C)CC)NC2=O)C(C)C` [BmKTX-196] (H-VGINVDCKHSGQCLKPCKKAGMRFGKCINGKCDCTPK-OH; disulfide 7-27, 13-32, 17-34): the “Effect on Kv11.1 channel currents” value in the data set with Kv11.1 is “much less of an effect”. Moreover, on Kv1.3 channel (10 nM peptide, whole-cell patch clamp, HEK293), the “Inhibition of Kv1.3 channel currents” value was “more than 50%”. Besides, on Kv1.3 channel (whole-cell patch clamp, HEK293 transfected with mouse Kv1.3, 22-25°C, Hill fit, at least five concentrations, mean ± S.E. of at least three experiments, read-out: IC50 for inhibiting Kv1.3 channel current), the IC50 came out at 7.3 ± 1.8 nM.

On to “BmKTX-19/K6A: alanyl mutant of BmKTX-19 at Lys6 (VGINVACKHSGQCLKPCKKAGMRFGKCINGKCDCTPKG; ends and bridges not checked; cysteine pairing not given here)”, for which the “Impact on the inhibitory potency of BmKTX-19 on Kv1.3” value in the data set with Kv1.3 channel (alanine-scanning mutagenesis, alanyl mutants of BmKTX-19, compared with the Lys8, His9 and Lys15 substitutions) is “much less of an impact”.

Consider “BmKTX-196/H9A: alanyl mutant of BmKTX-196 at His9 (VGINVDCKASGQCLKPCKKAGMRFGKCINGKCDCTPKG; ends and bridges not checked; cysteine pairing not given here)”, for which the “Reduction of the affinity of BmKTX-196 for the Kv1.3 channel” value with Kv1.3 channel (alanine-scanning mutagenesis) is reported as 3 fold.

Take “BmKTX-196/K8A: alanyl mutant of BmKTX-196 at Lys8 (VGINVDCAHSGQCLKPCKKAGMRFGKCINGKCDCTPKG; ends and bridges not checked; cysteine pairing not given here)”: the “Reduction of the affinity of BmKTX-196 for the Kv1.3 channel” value with Kv1.3 channel (alanine-scanning mutagenesis) is on record as 68 fold.

As a reminder, the IC50 is the concentration that inhibits the measured activity by half.

The record behind these values is paper PMC4424837, “Toxin acidic residue evolutionary function-guided design of de novo peptide drugs for the immunotherapeutic target, the Kv1.3 channel” (Scientific Reports, 2015).
